Data taken from patent US7795225B2, “Anti-chrondrosarcoma compounds” (priority 2003, dated 2010).
“Also recorded” adds a separate entry of the source. Where no end group is shown, it is not given here.

Columns and labels:
[1] = tested on: Human chondrosarcoma cells (SW1351); assay: Chondrosarcoma cell proliferation (CellTiter 96 Aqueous One, absorbance 490 nm); type: cell-based
Procedure: Human chondrosarcoma cells (SW1351) were purchased from the American Type Culture Collection (ATCC No. HTB-94). A frozen vial of cells was thawed by gentle agitation in a 37° C. water bath for about 2 minutes. The vial was decontaminated with 70% ethanol and the cells were transferred to a T75 flask containing pre-wanned Leibovitz's L-15 medium (ATCC Catalog No. 30-2008) with 10% fetal bovine serum. The culture as incubated at 37° C. until 80% confluence. The culture medium was removed and the cells were dissociated from the T75 flask using 3 ml 0.25% trypsin, 0.03 mM EDTA at 37° C. After incubation for 5 minutes, 8 ml culture medium was added to stop trypsinization. The cells were counted with trypan blue and then seeded in 96 well plates at a density of about 2500 cells/well.
Six separate cell cultures were tested at each concentration of each peptide (n=6). Control cells received culture medium only.
Cell cultures were then incubated at 37° C. in an atmosphere of 5% CO2. Cell proliferation was determined after 18 or 72 hr by using the CellTiter 96 Aqueous One Solution purchased from Promega (Catalog No. TB245). Briefly, the CellTiter solution was warmed up to room temperature. Twenty microliters of the solution was added to each well. Cells were incubated at 37° C. for 1-2 hours. The absorbance at 490 nm was then recorded using a 96 well plate reader. The data were statistically analyzed using a Student T test. Differences were considered significant at the level of p<0.05.

MMP-9 = molecular target: T1, MMP-9 (Homo sapiens, UniProt P14780); assay: Fluoresceinated collagen hydrolysis assay (fluorescein release); type: biochemical; settings: extended time assay, FIG. 8
T1 construct: Active MMP-9 enzyme was purchased from Calbiochem; purchased Calbiochem
Procedure: Two enzymatic assays were performed. The first assay measured the enzymatic hydrolysis of fluoresceinated collagen by MMP-9 as a function of time. […] The protein mixture was added to the collagen substrate, and was quickly mixed. Fluorescence emission intensity at 520 nm was measured as a function of time (excitation wavelength 495 nm) in a Shimadzu RF5301 fluorimeter (Lakowicz, 1983). The fluorescein release assay was used to determine the inhibitory constant (Ki) of the peptide inhibitor ([I]) according to Segel (1993) via the use of Dixon plots (1/v vs. [I]), such that: slope=Km /(V max Ki [S]) (1) where Km is the Michaelis constant, Vmax is the reaction maximum velocity, and [S] is the substrate concentration.

pro-MMP-9 = pro-MMP-9 (Homo sapiens, UniProt P14780); assay: Anti-activation (anti-splicing) assay: conversion of pro-MMP-9 by stromilysin, HPLC; type: biochemical; settings: 0.5 and 1.0 μM peptide, FIG. 12
Procedure: The assay measured how much proenzyme was converted into mature matrix metalloproteinase. Proenzyme pro-MMP-9 (100 μg) was mixed with 0.5 μg of stromilysin in PBS. The reaction was incubated at 35° C. Aliquots were removed from the reaction over an 80 minute time course. […] The zero (injection) time point was a single peak that elutes from the column in approximately 750 seconds. This peak reduced in size as a function of time, and two new peaks appeared. The first peak eluted at approximately 800 seconds, and represented the mature form of MMP-9. The second peak eluted at approximately 1100 seconds, and corresponded to the N-terminal pro-domain fragment. Peak areas were determined by integrating over the elution profile, and the percent area changes were plotted.
The first peak, eluting at approximately 700 seconds, is pro-MMP-9. As the splicing reaction proceeds, this peak decreases in intensity (as marked with the downwards arrow), and two new peaks appear. The first new peak, eluting at approximately 800 seconds, is mature and active MMP-9. The second new peak, eluting at approximately 1050 seconds, is the prodomain. As the splicing reaction proceeds, the intensity of these two peaks increases (as marked with the upwards arrows). When the reaction is complete, there is no detectable pro-MMP-9 remaining.

C57BL6/KsJ db/db mice = assay: Wound healing in db/db diabetic mice; type: in vivo; settings: single dose 5 μL of 20 μg/mL at day zero, saline control 14 days
Source text: Wounds were created in C57BL6/KsJ db/db mice with a 4 mm biopsy punch. The mice were obtained from The Jackson Laboratories and were aged 3-7 months before the onset of the wounding protocol. All mice were anesthetized prior to wounding. Two wounds were introduced onto the upper back of each animal by pulling the skin away from underlying structures and pushing the punch through the isolated skin. Typically, wounds were created to an average depth of 1.7 mm, with a range of 1.3 to 2.2 mm. No muscle involvement occurred during the course of wounding.
Each day the wounds were digitally photographed and wound areas were determined by computer integration of the photographs. All wound treatments and the subsequent data analyses were performed in a blind manner (see e.g., Brown et al., 1994). Wound area at the time of wounding (day 0) was arbitrarily set to a relative value of 1 for all wounds; such that subsequent wound areas were converted to relative wound areas by dividing the wound area at day n by the wound area at day zero.

pro-MMP-9, sequence (P14780 20-707): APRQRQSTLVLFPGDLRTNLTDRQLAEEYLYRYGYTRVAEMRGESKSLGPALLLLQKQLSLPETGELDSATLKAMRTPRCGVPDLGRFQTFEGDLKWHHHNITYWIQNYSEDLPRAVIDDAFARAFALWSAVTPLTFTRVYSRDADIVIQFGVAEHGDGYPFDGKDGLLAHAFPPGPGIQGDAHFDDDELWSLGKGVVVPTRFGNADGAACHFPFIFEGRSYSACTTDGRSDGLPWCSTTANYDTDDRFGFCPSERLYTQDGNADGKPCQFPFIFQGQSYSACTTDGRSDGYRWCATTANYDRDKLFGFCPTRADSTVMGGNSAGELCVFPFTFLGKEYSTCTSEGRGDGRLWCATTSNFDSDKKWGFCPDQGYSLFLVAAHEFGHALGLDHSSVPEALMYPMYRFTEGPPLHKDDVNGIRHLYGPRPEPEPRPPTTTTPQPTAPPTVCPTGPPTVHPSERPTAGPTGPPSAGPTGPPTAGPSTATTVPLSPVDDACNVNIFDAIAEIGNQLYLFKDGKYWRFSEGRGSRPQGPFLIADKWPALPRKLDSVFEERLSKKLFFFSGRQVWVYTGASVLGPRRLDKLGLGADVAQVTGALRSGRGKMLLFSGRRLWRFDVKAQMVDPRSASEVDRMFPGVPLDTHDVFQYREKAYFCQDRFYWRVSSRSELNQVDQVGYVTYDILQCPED
T1 sequence (P14780 107-707 limits assumed): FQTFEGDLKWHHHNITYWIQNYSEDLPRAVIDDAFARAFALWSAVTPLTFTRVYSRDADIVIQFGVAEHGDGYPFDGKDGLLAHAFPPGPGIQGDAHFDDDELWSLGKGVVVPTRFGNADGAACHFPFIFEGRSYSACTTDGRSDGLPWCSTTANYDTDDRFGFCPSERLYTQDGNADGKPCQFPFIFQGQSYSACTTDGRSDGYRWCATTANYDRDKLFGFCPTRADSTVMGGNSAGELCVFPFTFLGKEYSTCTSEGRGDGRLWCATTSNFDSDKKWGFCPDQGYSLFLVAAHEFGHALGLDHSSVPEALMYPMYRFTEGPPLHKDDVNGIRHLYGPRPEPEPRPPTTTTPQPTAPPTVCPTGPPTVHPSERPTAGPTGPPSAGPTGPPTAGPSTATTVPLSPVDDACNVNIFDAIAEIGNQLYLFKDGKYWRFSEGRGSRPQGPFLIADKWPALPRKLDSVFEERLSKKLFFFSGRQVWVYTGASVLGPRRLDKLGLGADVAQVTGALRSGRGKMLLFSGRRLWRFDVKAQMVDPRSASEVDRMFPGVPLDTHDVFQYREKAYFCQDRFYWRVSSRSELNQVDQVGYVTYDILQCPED

Compound	chondrosarcoma cell proliferation vs untreated cells ([1]; 18 hr, three concentrations tested (10^−6, 10^−5, 10^−4 M))	chondrosarcoma cell proliferation vs untreated cells ([1]; 72 hours, 10^−4 M, p<0.05)	chondrosarcoma cell proliferation vs untreated cells ([1]; 18 hours, 10^−4 M, p<0.05)	chondrosarcoma cell proliferation vs untreated cells ([1]; 72 hours, 10^−5 M, p<0.05)	period of time of effective inhibition of MMP-9 catalyzed hydrolysis of collagen (MMP-9) [min]	inhibition of splicing (conversion of pro-MMP-9 into prodomain and active enzyme) (pro-MMP-9)	time to full wound closure post wounding (C57BL6/KsJ db/db mice) [days]
NYNFFPRKPK [10-mer]	did not show any significant effect	substantially less					
PRCGNPDVA [9-mer]		substantially less	significantly inhibits or depresses growth; also recorded: significantly inhibited	significantly reduced			
CC(C)[C@H](NC(=O)[C@H](CC(=O)O)NC(=O)[C@@H]1CCCN1C(=O)[C@H](CC(N)=O)NC(=O)CNC(=O)[C@H](CS)NC(=O)[C@H](CCCNC(=N)N)NC(=O)[C@@H]1CCCN1)C(=O)N[C@@H](C)C(=O)N[C@@H](CC(N)=O)C(=O)N[C@@H](Cc1ccc(O)cc1)C(=O)N[C@@H](CC(N)=O)C(=O)N[C@@H](Cc1ccccc1)C(=O)N[C@@H](Cc1ccccc1)C(=O)N1CCC[C@H]1C(=O)N[C@@H](CCCNC(=N)N)C(=O)N[C@@H](CCCCN)C(=O)N1CCC[C@H]1C(=O)N[C@@H](CCCCN)C(=O)O [19-mer]		substantially less	significantly inhibits or depresses growth; also recorded: significantly inhibited		> 1000	inhibited in a dose dependent manner	9
